Measured values: US10154991B2, “Anesthetic compounds and related methods of use” (priority 2012, dated 2018)
Like-named read-outs stand apart in the source and are kept apart here.

Columns and labels:
ICR mice = assay: In vivo sedative/hypnotic testing, IV bolus, mice; parameters: species or system mouse; settings: for slope of duration of LORR vs logarithm of dose: mice
Protocol: (§1) Animals were housed in a dedicated room at the vivarium of VivoPath Inc., located at Redstone Center, 55 Union Street, Worcester, Mass. Housing and care was as specified in the USDA Animal Welfare Act (9 CFR, Parts 1, 2, and 3) and as described in the Guide for the Care and Use of Laboratory Animals from the National Research Council. Environmental conditions of housing rooms are set at the following ranges: temperature: 70±7° F. (22±4° C.), humidity: 50±20%, light cycle: 12-hour light/12-hour dark cycle—lights on at 7 am and off at 7 pm., air changes: ten or more air changes per hour with 100% fresh air. The animals' body weights were measured prior to the first dose on each experimental day.
Adult ICR mice (20-30 g) were purchased from Harlan (South Easton, Mass.). Drugs were administered as intravenous bolus injection in a tail vein.
(§2) Drugs were prepared in either dimethylsulfoxide/saline or saline vehicle or hydroxypropyl-β-cyclodextrin (20% in water, pH 7.0) solution and were administered as an intravenous bolus injection. Animals received 1-4 doses of drug(s) during an experimental day, either ascending doses or different drugs. Doses were administered at intervals equal to the longer of 1 h or 10-times the duration of apparent sedative/hypnotic effects from the previous dose. The sedative/hypnotic properties of the drugs were evaluated by observation of the rats, ranging from mild excitation, mild sedation apparent due to reduced activity, and moderate sedation to hypnosis reflected by loss of righting reflex (LORR, the ability to place rear and hind legs under the body, as well as attenuation/loss of nociceptive reflexes).

Sprague-Dawley rats = assay: In vivo sedative/hypnotic testing, IV bolus, rats; parameters: species or system rat; settings: for slope of duration of LORR vs logarithm of dose: rats
Protocol: as §1
Adult male Sprague-Dawley rats (225-300 g) were purchased from Harlan (South Easton, Mass.).
as §2

beagle dogs = settings: dogs
Protocol: A pilot study was conducted in dogs to assess anesthesia induced by cyclopropyl-MOC-metomidate continuous infusion without a bolus induction dosing. Two dogs received cyclopropyl-MOC-metomidate as a 1 mg/kg/min IV infusion without prior bolus administration.
Anesthesia induction was determined using the methods described above.
Etomidate was administered to dogs at IV bolus doses ranging from 0.25 to 2 mg/kg. Anesthesia in the dogs was measured as described above. […] The bolus dose of 2 mg/kg was adopted to induce anesthesia prior to subsequent continuous infusions.
Propofol was administered to dogs as an IV bolus dose of 5 mg/kg to induce anesthesia followed by a continuous infusion at 0.4 mg/kg/min.

[1] = tested on: adrenal cortisol production
Protocol: Dexamethasone (0.01 mg/kg) was administered two hours before the first administration of ACTH and re-administered every 2 hours to maintain suppression. Dexamethasone pretreatment suppresses the hypothalamo-hypophyseal axis to prevent endogenous ACTH release and subsequent adrenocortical steroid secretion. […] Synthetic ACTH (Synacthen, 250 μg) was then administered at times after test substance administration to evaluate the effects of the test substance on the release of the adrenal steroid, cortisol.
All study methods described for Study 1 were repeated, except the ACTH administration at the end of infusion was omitted.

[2] = From Pejo et al.; cited from earlier work
rats = assay: loss of righting reflexes (LORR) assay after IV bolus; settings: for ED50: Rattus norvegicus, iv, read-out: ED50 ± SD; for Slope of Duration vs. Log Dose ± SD: duration of LORR vs log dose, rats
Protocol: Adult male Sprague-Dawley rats (230-350 gm) were purchased from Charles River Laboratories (Wilmington, Mass.) and housed in the Massachusetts General Hospital Center for Comparative Medicine animal care facility. All drugs were administered through a femoral venous catheter pre-implanted by the vendor prior to animal delivery to our animal care facility.
Immediately after injection, rats were turned supine. […] A stopwatch was used to measure the duration of LORR, which was defined as the time from drug injection until the animal spontaneously righted itself.

[3] = In vitro metabolic half-life of hypnotics in rat blood; type: in vitro ADME; settings: Sprague-Dawley, rat, rat blood
Protocol: On the day of study, whole blood was drawn from the femoral venous catheters of 3 Sprague-Dawley rats (1-2 ml/rat), immediately anticoagulated with heparin (38 U), pooled, and stored on ice. A 1 ml aliquot of blood was warmed at 37° C. for 5 minutes and hypnotic (from a 40 mM in dimethyl sulfoxide stock solution) was added to a final concentration of 100 μM. After the desired incubation time, a 150 μl sample was removed and the metabolic reaction was quenched with 150 μl acetonitrile (Sigma-Aldrich, St. Louis, Mo.). Zero time point samples were prepared by adding 150 μl acetonitrile to blood prior to adding hypnotic (from a 4 mM in dimethyl sulfoxide stock solution). The quenched samples were centrifuged and the resultant supernatant separated and stored at −20° C. until analyzed. Hypnotic concentrations in thawed samples were determined by high performance liquid chromatography using a Varian Prostar system with a 4.6×250 mm Proto 300 C18 column (Nest Group, Southborough, Mass.) with the UV detector set at 240 nm.

[4] = Octanol:water partition coefficients; type: physicochemical; settings: 10 mM Tris pH 7.4; read-out: Octanol/Water Partition Coefficient ± SD (converted)
Protocol: One mg of each hypnotic was added to 10 ml of water buffered with 10 mM Tris (pH 7.4) and 0.5 ml or 1 ml of octanol. The mixture was stirred overnight and then centrifuged to more fully separate the organic and aqueous phases. The relative hypnotic concentrations in each phase (i.e. the partition coefficient) were determined by high performance liquid chromatography as described for blood.

dogs and monkeys = assay: Preliminary studies of duration of action in dogs and monkeys; type: in vivo; settings: large animals, similar to that in rats
[5] = pooled heparinised whole blood, 37° C., 100 μM, read-out: Blood Half-Life (95% CI)

Compound | slope of duration of LORR vs logarithm of dose (ICR mice) | slope of duration of LORR vs logarithm of dose (Sprague-Dawley rats) | involuntary movements during recovery (beagle dogs) | bolus dose range inducing anesthesia (beagle dogs; IV bolus 0.25 to 2 mg/kg tested) [mg/kg] | minimum initial effective continuous infusion dose rate (beagle dogs; after 2 mg/kg bolus) [mg/kg/min] | respiratory effect during infusion (beagle dogs; after approximately 30 minutes at 0.15 mg/kg/min) | context dependence of recovery from anesthesia (beagle dogs; bolus vs 30- or 120-minute infusion) | ACTH-induced plasma cortisol response ([1]; Study 1, dogs, after 120-minute infusion) | adrenal suppression ([1]; dogs, compared with the other test substances) | Octanol/Water Partition Coefficient ± SD [2] | ED50 (rats) [mg/kg] | Slope of Duration vs. Log Dose ± SD (rats) | half-life at 100 μM [3, 5] [s] | half-life at 100 μM ([3]; 37° C., 100 μM, read-out: Blood Half-Life (95% CI)) [s] | half-life at 100 μM ([3]; bound based on the lower limit of quantification, read-out: metabolic half-life in rat blood (converted)) [s] | logD [4] | ED50 (ICR mice; Mus musculus, sedation/hypnosis, IV) [mg/kg] | Rat response (Sprague-Dawley rats; IV bolus, doses as in the cell) | ED50 (Sprague-Dawley rats; Rattus norvegicus, sedation/hypnosis, IV) [mg/kg] | duration of action (dogs and monkeys) [min]
CCOC(=O)c1cncn1[C@H](C)c1ccccc1 [Etomidate, (R)-ethyl-1-(1-phenylethyl)-1H-imidazole-5-carboxylate, reference compound] | approximately 10 | ~24 | extended periods of involuntary movements | 0.5 to 2 | 0.15 | decrease in respiratory rate | marked context-dependency | markedly inhibited | more profound and durable adrenal suppression | 800 ± 180 | 0.53 ± 0.17 | 24±4.7 min/(log mg/kg) |  |  |  |  |  |  |  | 
COC(=O)CCOC(=O)c1cncn1[C@H](C)c1ccccc1 [Methoxycarbonyl etomidate, methoxycarbonyl etomidate, reference compound] | approximately 1.0 | approximately 1.0 |  |  |  |  |  |  |  |  | 5.3 ± 1.5 | 1.0±0.3 min/(log mg/kg) | 24.6 | 8.4 | 20 | 2.28 | ~10 | Sedation/hypnosis induced at 8 & | ~8 | 1 to 2
COC(=O)C[C@H](C)OC(=O)c1cncn1[C@H](C)c1ccccc1 [β-(S)- methyl- methoxycarbonyl etomidate, β-S-methyl-MOC-etomidate] |  |  |  |  |  |  |  |  |  |  | 2.9 ± 0.3 |  | 43.2 |  |  | 2.68 |  |  |  | 
COC(=O)CC(C)(C)OC(=O)c1cncn1[C@H](C)c1ccccc1 [β-dimethyl- methoxycarbonyl etomidate, β-dimethyl-MOC-etomidate] |  |  |  |  |  |  |  |  |  |  | 1.9 ± 0.3 |  | 1400 |  |  | 3.2 |  |  |  | 
